Data taken from US8192962B2, “Processes for detecting toxic substances” (Daikin Industries, Ltd., priority 2001, dated 2012).

Tested on: DNA repair protein genes
Experiment: DNA chip mRNA expression in yeast, DNA repair protein genes (Table 3)
Type: cell-based, Saccharomyces cerevisiae S288C
Conditions: incubated two hours, concentrations as in the 1st table
Method in brief: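 Untreated cultures served as reference for log-phase S288C yeast given a growth-inhibiting, non-lethal toxicant dose for 2 h at 25° C. in YPD. Gene expression was measured on a whole-genome DNA chip from Cy3/Cy5-labeled cDNA.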

CN(C)C(=S)SSC(=S)N(C)C [(10), Tetramethylthiuram disulfide]
The level of expressed mRNA in the presence of chemical substance/The level of expressed mRNA in the absence of chemical substance (yeast gene YAL015C): 2.7
The level of expressed mRNA in the presence of chemical substance/The level of expressed mRNA in the absence of chemical substance (yeast gene YAR007C): 1.7
The level of expressed mRNA in the presence of chemical substance/The level of expressed mRNA in the absence of chemical substance (yeast gene YBL019W): 1.4
The level of expressed mRNA in the presence of chemical substance/The level of expressed mRNA in the absence of chemical substance (yeast gene YBR073W): 1.8
The level of expressed mRNA in the presence of chemical substance/The level of expressed mRNA in the absence of chemical substance (yeast gene YBR272C): 2.7
The level of expressed mRNA in the presence of chemical substance/The level of expressed mRNA in the absence of chemical substance (yeast gene YCR014C): 1.0
The level of expressed mRNA in the presence of chemical substance/The level of expressed mRNA in the absence of chemical substance (yeast gene YDL017W): 1.8
The level of expressed mRNA in the presence of chemical substance/The level of expressed mRNA in the absence of chemical substance (yeast gene YDL059C): 7.8
The level of expressed mRNA in the presence of chemical substance/The level of expressed mRNA in the absence of chemical substance (yeast gene YDL200C): 1.8
The level of expressed mRNA in the presence of chemical substance/The level of expressed mRNA in the absence of chemical substance (yeast gene YDR054C): 3.2
The level of expressed mRNA in the presence of chemical substance/The level of expressed mRNA in the absence of chemical substance (yeast gene YDR369C): 1.8
The level of expressed mRNA in the presence of chemical substance/The level of expressed mRNA in the absence of chemical substance (yeast gene YEL019C): 0.7
The level of expressed mRNA in the presence of chemical substance/The level of expressed mRNA in the absence of chemical substance (yeast gene YEL037C): 1.2
The level of expressed mRNA in the presence of chemical substance/The level of expressed mRNA in the absence of chemical substance (yeast gene YER162C): 1.6
The level of expressed mRNA in the presence of chemical substance/The level of expressed mRNA in the absence of chemical substance (yeast gene YFL014W): 5.8
The level of expressed mRNA in the presence of chemical substance/The level of expressed mRNA in the absence of chemical substance (yeast gene YGL058W): 1.8
The level of expressed mRNA in the presence of chemical substance/The level of expressed mRNA in the absence of chemical substance (yeast gene YGL091C): 6.0
The level of expressed mRNA in the presence of chemical substance/The level of expressed mRNA in the absence of chemical substance (yeast gene YGL127C): 1.5
The level of expressed mRNA in the presence of chemical substance/The level of expressed mRNA in the absence of chemical substance (yeast gene YGL163C): 2.3
The level of expressed mRNA in the presence of chemical substance/The level of expressed mRNA in the absence of chemical substance (yeast gene YGL249W): 2.4
The level of expressed mRNA in the presence of chemical substance/The level of expressed mRNA in the absence of chemical substance (yeast gene YGR180C): 1.5
The level of expressed mRNA in the presence of chemical substance/The level of expressed mRNA in the absence of chemical substance (yeast gene YGR231C): 2.3
The level of expressed mRNA in the presence of chemical substance/The level of expressed mRNA in the absence of chemical substance (yeast gene YGR258C): 1.5
The level of expressed mRNA in the presence of chemical substance/The level of expressed mRNA in the absence of chemical substance (yeast gene YHR164C): 3.1
The level of expressed mRNA in the presence of chemical substance/The level of expressed mRNA in the absence of chemical substance (yeast gene YIL036W): 2.7
The level of expressed mRNA in the presence of chemical substance/The level of expressed mRNA in the absence of chemical substance (yeast gene YIL072W): 2.1
The level of expressed mRNA in the presence of chemical substance/The level of expressed mRNA in the absence of chemical substance (yeast gene YIL143C): 3.5
The level of expressed mRNA in the presence of chemical substance/The level of expressed mRNA in the absence of chemical substance (yeast gene YIL153W): 1.1
The level of expressed mRNA in the presence of chemical substance/The level of expressed mRNA in the absence of chemical substance (yeast gene YIR002C): 1.4
The level of expressed mRNA in the presence of chemical substance/The level of expressed mRNA in the absence of chemical substance (yeast gene YJL026W): 1.1
The level of expressed mRNA in the presence of chemical substance/The level of expressed mRNA in the absence of chemical substance (yeast gene YJR046W): 2.4
The level of expressed mRNA in the presence of chemical substance/The level of expressed mRNA in the absence of chemical substance (yeast gene YJR052W): 2.3
The level of expressed mRNA in the presence of chemical substance/The level of expressed mRNA in the absence of chemical substance (yeast gene YKL145W): 2.7
The level of expressed mRNA in the presence of chemical substance/The level of expressed mRNA in the absence of chemical substance (yeast gene YLR103C): 0.5
The level of expressed mRNA in the presence of chemical substance/The level of expressed mRNA in the absence of chemical substance (yeast gene YLR233C): 0.5
The level of expressed mRNA in the presence of chemical substance/The level of expressed mRNA in the absence of chemical substance (yeast gene YLR288C): 1.3
The level of expressed mRNA in the presence of chemical substance/The level of expressed mRNA in the absence of chemical substance (yeast gene YML032C): 1.1
The level of expressed mRNA in the presence of chemical substance/The level of expressed mRNA in the absence of chemical substance (yeast gene YML058W): 1.2
The level of expressed mRNA in the presence of chemical substance/The level of expressed mRNA in the absence of chemical substance (yeast gene YMR035W): 1.6
The level of expressed mRNA in the presence of chemical substance/The level of expressed mRNA in the absence of chemical substance (yeast gene YMR072W): 1.2
The level of expressed mRNA in the presence of chemical substance/The level of expressed mRNA in the absence of chemical substance (yeast gene YMR096W): 3.7
The level of expressed mRNA in the presence of chemical substance/The level of expressed mRNA in the absence of chemical substance (yeast gene YMR284W): 1.8
The level of expressed mRNA in the presence of chemical substance/The level of expressed mRNA in the absence of chemical substance (yeast gene YNL213C): 1.5
The level of expressed mRNA in the presence of chemical substance/The level of expressed mRNA in the absence of chemical substance (yeast gene YNL250W): 2.3
The level of expressed mRNA in the presence of chemical substance/The level of expressed mRNA in the absence of chemical substance (yeast gene YNL261W): 1.5
The level of expressed mRNA in the presence of chemical substance/The level of expressed mRNA in the absence of chemical substance (yeast gene YNL312W): 2.5
The level of expressed mRNA in the presence of chemical substance/The level of expressed mRNA in the absence of chemical substance (yeast gene YOL043C): 1.8
The level of expressed mRNA in the presence of chemical substance/The level of expressed mRNA in the absence of chemical substance (yeast gene YOR005C): 1.5
The level of expressed mRNA in the presence of chemical substance/The level of expressed mRNA in the absence of chemical substance (yeast gene YOR386W): 3.0
The level of expressed mRNA in the presence of chemical substance/The level of expressed mRNA in the absence of chemical substance (yeast gene YPL022W): 1.6
The level of expressed mRNA in the presence of chemical substance/The level of expressed mRNA in the absence of chemical substance (yeast gene YPL164C): 2.0
The level of expressed mRNA in the presence of chemical substance/The level of expressed mRNA in the absence of chemical substance (yeast gene YPL194W): 3.1
The level of expressed mRNA in the presence of chemical substance/The level of expressed mRNA in the absence of chemical substance (yeast gene YPR025C): 1.7
